Measured values reported in patent publication US4759917A, “Oxidative dissolution of gallium arsenide and separation of gallium from arsenic” (priority 1987, dated 1988).
Where “and” joins values, the source holds several entries; their conditions need not be identical. Equal entries are not always repeated. Structures can show the parent of a compound that is named as a salt. Where two headings read alike, the source gives them in different places. Each block holds one compound with its values, some of them ahead of it.

Columns and labels:
[1] = Aqueous solubilities of N-alkylalkano and N-H hydroxamic acids (Table 1); format: physicochemical
Excerpt: It is desirable that the N-organo hydroxamic acid have low solubility in water in order to effect ready separation of the chelated gallium from the aqueous oxidizing medium.
For the extraction to occur, it is necessary that the extractant have some slight solubility in the aqueous Ga-containing medium.

[2] = Example 2: complexing agents with hydrogen peroxide to oxidize and dissolve gallium arsenide (Table 3)
[3] = Example 4: oxidizing agents with N-methylnonanohydroxamic acid as complexing agent on gallium arsenide (Table 5)
Experimental: A series of procedures were conducted to test effectiveness of various complexing agents with hydrogen peroxide to oxidize and effect dissolution of gallium arsenide. A 0.5 gram amount of GaAs powder was added to a 50 ml beaker with 20 ml deionized water. The complexing agent was added with stirring, followed by addition of 5 ml 30% hydrogen peroxide in water with stirring. Stirring was continued for about 10 minutes with gradual heating on a hot plate to 85° C., with observation for reaction. The mixtures were then allowed to stand at room temperature for about four days with observation for further changes, and the percentage of the starting gallium which had dissolved was determined by analysis of the liquid by atomic absorption.
Using the procedure of Example 2 and 3.0 ml of N-methylnonanohydroxamic acid as complexing agent, a number of oxidizing agents were employed with gallium arsenide, with results as reported in Table 5.

[4] = Hydrolysis of hydroxamic acids in gallium extraction, washing and stripping procedures (Table 2); format: physicochemical; details: hydrolysis after gallium extraction, spectrophotographic analysis
Experimental: The extent of hydrolysis of some hydroxamic acids used in some gallium extraction, washing and stripping procedures was determined by spectrophotographic analysis of the solution after completion of the procedures, with results as reported in Table 2.
The procedures and further information on the hydrolytic stability of N-alkyl hydroxamic acids are reported in the aforesaid copending application Ser. No. 937,849. The hydrolytic stability of the N-alkyl hydroxamic acids is an advantage for their use in the present invention.

[5] = Example 1: gallium recovery from Lap Sludge by simultaneous dissolution and separation
[6] = Solubility in a typical phosphate rock treater dust leachate; format: physicochemical; details: leachate with high concentrations of Al, Zn, Fe, phosphate and other ions
Excerpt: It wlll be noted that most of the N-alkyl hydroxamic acids have very low solubilities in aqueous media, with the solubility tending to increase with decreasing number of carbon atoms in the hydroxamic acids. […] This appreciable but limited solubility appears responsible for the effectiveness of N-methylnonanohydroxamic acid in extracting Ga from such leachates, with regard to both rate and extent of the extraction compared to higher carbon number N-alkyl hydroxamic acids. For the extraction to occur, it is necessary that the extractant have some slight solubility in the aqueous Ga-containing medium.

[7] = 0.5 g GaAs, 20 ml water, 5 ml 30% H2O2, heated to 85° C. about 10 min, then about four days at room temp.
[8] = observation during about 10 min stirring with heating to 85° C., H2O2
[9] = 3.0 ml N-methylnonanohydroxamic acid as complexing agent
[10] = 30% H2SO4 strip of organic phase
[11] = aqueous phase plus dilute nitric acid and other washes

Solubility (25° C.) [1]: 111. ppm and 82. ppm
Compound: CCCCCCCCCC(=O)N(C)O [N--methyldecanohydroxamic acid]

Compound: O.O=P([O-])(O)O.[Na+] [NaH2 PO4.H2 O]
% Ga in Solution After 4 Days [2, 7]: 0% | Initial Result [2, 8]: No reaction

Compound: [Na+].[OH-] [NaOH, sodium hydroxide]
% Ga in Solution After 4 Days [2]: 100%

Solubility (25° C.) [1]: 1.6 ± 1 ppm | Solubility (25° C.), molarity [1]: 5.71 × 10^-6 molarity
Compound: CCCCCCCCCC(=O)N(O)CCCCCC [N--hexyldecanohydroxamic acid]

Compound: II
Result: time to complete reaction, no heating [3, 9]: 60 s

Compound: O=C(O)C(=O)O [Sodium oxalate]
% Ga in Solution After 4 Days [2]: 100% | Initial Result: time to complete reaction ([2]; heating to 85° C., H2O2): 1 min | Initial Result [2, 8]: small prec.

Compound: O=C(O)CN(CC(=O)O)CC(=O)O [Sodium nitrilo triacetate]
% Ga in Solution After 4 Days [2]: 100% | Initial Result: time to complete reaction ([2]; heating to 85° C., H2O2): 3 min

Compound: O=[N+]([O-])O [HNO3 conc., nitric acid]
Result: time to complete reaction [3, 9]: 50 s | Result: time to complete reaction, no complexing agent ([3]; no complexing agent): 20 min

Compound: BrBr [liquid bromine, bromine]
Result: time to complete reaction, no heating [3, 9]: 37 s

Compound: N-n-propyl naphthenohydroxamic acid [N--Propyl naphthenohydroxamic acid]
% Decomposition [4]: +0.74%

Compound: CCCCCCCCCCCC(=O)NO [dodecanohydroxamic acid]
effectiveness in reaction and dissolution of gallium arsenide ([2]; H2O2 as oxidizing agent): reaction did not occur | Initial Result [2, 8]: No reaction | % Ga in Solution After 4 Days (omitted heating) ([2]; omitted heating, H2O2): 100% | Initial Result: time to complete reaction ([2]; with 10 ml 2-ethyl hexanol, omitted heating, H2O2): 360 min | Initial Result in 15 min. ([2]; with 10 ml 2-ethyl hexanol, omitted heating, mild exotherm, 15 min.): Some reaction | time for complete reaction ([2]; with a solvent (Test ε)): about 6 hours

Compound: O=P([O-])([O-])OP(=O)([O-])[O-].[Na+].[Na+].[Na+].[Na+] [Sodium pyrophosphate Na4 P2 O7, Sodium pyrophosphate]
% Ga in Solution After 4 Days [2]: 100% | Initial Result [2]: white prec. | Initial Result: time to complete reaction (min) [2]: 3

Compound: CC(=O)N(C)O [Nmethyl acetohydroxamic acid, N-methyl acetohydroxamic acid]
Initial Result: time to complete dissolution [2]: 5 min | Initial Result: % reacted in 10 min. ([2]; 0.80 grams, omitted heating, 10 min.): 90% | effectiveness in reaction and dissolution of gallium arsenide ([2]; H2O2 as oxidizing agent): the chelated gallium does not readily separate from the aqueous oxidation medium | % Ga in Solution After 4 Days (omitted heating) ([2]; omitted heating, H2O2): 100%

Compound: O=P([O-])(O)O.[Na+] [Monobasic sodium phosphate (NaH2 PO4), Monobasic sodium phosphate]
% Ga in Solution After 4 Days [2, 7]: 0% | Initial Result [2, 8]: No reaction

Solubility (25° C.) [1]: 0.7 ± 1 ppm | Solubility (25° C.), molarity [1]: 1.7 × 10^-6 molarity
Compound: CCCCCCCCCC(CCCCCCCCC)N(O)C(=O)C1CCCCC1 [N-(1-nonyldecyl) cyclohexanohydroxamic acid]

Compound: CC(=O)NO [Acetohydroxamic Acid]
Initial Result: time to complete dissolution [2]: 25 min | Initial Result: % reacted in 30 min. ([2]; 0.62 grams, omitted heating, 30 min.): 80% | % Ga in Solution After 4 Days (omitted heating) ([2]; omitted heating, H2O2): 100%

Compound: O=C(O)CC(O)(CC(=O)O)C(=O)O [Sodium citrate]
% Ga in Solution After 4 Days [2]: 100%

Compound: naphthenohydroxamic acid [N--H naphthenohydroxamic acid, reference compound]
% Decomposition [4]: 45.0%

Compound: CCCCCCCC(=O)NO [octanohydroxamic acid]
Initial Result: % dissolved in 24 hrs. ([2]; 1.48 grams, omitted heating, 24 hrs.): 52.5% | % Ga in Solution After 4 Days (after addn. of 10 ml n-BuOH) ([2]; omitted heating, after addn. of 10 ml n-BuOH, H2O2): 100%

Compound: CC(O)(P(=O)(O)O)P(=O)(O)O [Dequest ® 2010]
% Ga in Solution After 4 Days [2]: 100% | effectiveness in reaction and dissolution of gallium arsenide ([2]; H2O2 as oxidizing agent): works well

Compound: O=P([O-])([O-])O.[Na+].[Na+] [Disbasic Sodium phosphate (Na2 HPO4), Disbasic Sodium phosphate]
% Ga in Solution After 4 Days [2]: 100% | effectiveness in reaction and dissolution of gallium arsenide [2]: effective in causing dissolution, but at a slow rate and with some white precipitate formation

Compound: [K+].[OH-] [KOH, potassium hydroxide]
Initial Result [2]: No reaction

Compound: O=C(O)CN(CCN(CC(=O)O)CC(=O)O)CC(=O)O [Ethylene diamine tetracetic acid]
% Ga in Solution After 4 Days [2]: 84.2%

Compound: Oc1cccc2cccnc12 [Oxine (8-hydroxy quinoline), 8-hydroxy quinoline]
Initial Result [2]: Precipitate

Compound: O=S(=O)([O-])OOS(=O)(=O)[O-].[K+].[K+] [Potassium persulfate]
Result [3, 9]: No reaction

Compound: N-methyl naphthenohydroxamic acid [N--Methyl naphthenohydroxamic acid]
time to complete dissolution after addition to Test N mixture ([2]; 2.98 grams added to Test N mixture after no reaction in 11.5 min.): 60 s | effectiveness in reaction and dissolution of gallium arsenide ([2]; H2O2 as oxidizing agent): rapid reaction and dissolution of the gallium arsenide | % Decomposition [4]: +0.14%

Compound: N-ethyl naphthenohydroxamic acid [N--Ethyl naphthenohydroxamic acid]
% Decomposition [4]: -0.53%

Compound: CCCCCCCCCc1ccc(O)cc1 [4-nonylphenol]
% Ga in Solution After 4 Days [2]: 0% | Initial Result [2]: No reaction

Compound: neotridecanohydroxamic acid
Solubility (25° C.) [1]: 328. ppm | Solubility (25° C.), molarity [1]: 1.43 × 10^-3 molarity

Solubility (25° C.) [1]: 3.9 ± 1 ppm | Solubility (25° C.), molarity [1]: 1.68 × 10^-5 molarity
Compound: CCCCCCCCCC(=O)N(O)C(C)C [N--isopropyldecanohydroxamic acid]

Compound: O=P(O)(O)O [Potassium phosphate (K3 PO4), Potassium phosphate]
% Ga in Solution After 4 Days [2]: 100% | Initial Result: time to complete reaction (secs) [2]: 50

Compound: CCCCCCCCC(=O)N(C)O [N-methylnonanohydroxamic acid]
Solubility (25° C.) [1]: 409. ppm | Solubility (25° C.), molarity [1]: 2.18 × 10^-3 molarity | % Ga in Solution After 4 Days [2]: 100% | effectiveness in reaction and dissolution of gallium arsenide ([2]; H2O2 as oxidizing agent): effective complexing agent | As in combined aqueous acid stripping solutions [5, 10]: 15 ppm | Ga in combined aqueous acid stripping solutions [5, 10]: 1100 ppm | As in combined aqueous phase and wash solutions [5, 11]: 2510 ppm | Ga in combined aqueous phase and wash solutions [5, 11]: 114 ppm | arsenic and gallium in water washings of organic phase ([5]; detection limit less than 1 ppm for each element): Neither arsenic nor gallium was detectable | Ga recovered per gram of starting sludge ([5]; starting sludge 17.7 mg Ga/gram): 17.8 mg Ga per gram | As recovered per gram of starting sludge ([5]; starting sludge analyzed 13.4 mg As/gram): 17.3 mg As/gram | solubility in a typical phosphate rock treater dust leachate [6]: 20 ppm | solubility in a typical phosphate rock treater dust leachate, molarity [6]: 1.07×10^-4 molarity

Compound: CCCCC(CC)COP(=O)(O)OCC(CC)CCCC (centres unmarked) [Di-(2-ethylhexyl) phosphoric acid]
% Ga in Solution After 4 Days [2]: 0% | Initial Result [2]: No reaction

Solubility (25° C.) [1]: 1.3 ± 1 ppm | Solubility (25° C.), molarity [1]: 4.60 × 10^-6 molarity
Compound: CCCCCCCCCCCCCCCC(=O)N(C)O [N--methylhexadecanohydroxamic acid]

Compound: O=P(O)(O)CCP(=O)(O)O [H2 O3 PCH2 CH2 PO3 H2, ethylene diphosphonic acid]
effectiveness in reaction and dissolution of gallium arsenide ([2]; H2O2 as oxidizing agent): an insoluble gallium complex may form and precipitate from the aqueous oxidizing medium | Initial Result: time to complete reaction ([2]; heating to 85° C., H2O2): 3 min

Compound: versatohydroxamic acid [versatohydroxamic acid (not N--alkyl), reference compound]
Solubility (25° C.) [1]: 1600. ppm | Solubility (25° C.), molarity [1]: 8.54 × 10^-3 molarity

Compound: O=P([O-])([O-])OP(=O)([O-])OP(=O)([O-])[O-].[Na+].[Na+].[Na+].[Na+].[Na+] [Sodium Triphosphate]
% Ga in Solution After 4 Days [2]: 100%

Compound: C=CC(CC(C)(C)CC(C)(C)C)c1ccc2cccnc2c1O (centres unmarked) [Kelex ® 100]
% Ga in Solution After 4 Days [2]: 0%
